Laboratory results as given in patent US4954523A, “Benzophenone oxime ether compounds, pharmaceutical compositions and treatment methods” (Eisai Co., Ltd., priority 1986, dated 1990).
pIC50: −log10 of the molar value. Where two headings read alike, the source gives them in different places.

Assays:
[1] = tested on: platelets (aggregation induced with collagen, arachidonic acid, ADP or PAF); assay: Effect in inhibiting aggulutination of platelets (in vitro), human platelet-rich plasma; type: cell-based
Protocol: 1. Effect in inhibiting aggulutination of platelets […]
The blood was collected from a human cubital vein in such a manner as to contain a 3.8% solution of sodium citrate in an amount 1.10 time by volume as much as the blood. Then platelet-rich plasma (PRP) was prepared therefrom according to the method reported by Packham et al. (ct. Packham, M. A., et al, J. Exp. Med., 126, 171-189 (1967)). To 0.2 ml of the obtained PRP, 25 μl portions of solutions of each compound of the present invention (A to E) at various concentrations were added and incubated at 37° C. for three minutes. Then the aggultination of platelets was induced with arachidonic acid, collagen, ADP and PAF. The aggulutination of platelets was evaluated according to the method reported by Mustard et al. (cf. Mustard, J. F., et al., J. Lab. Clin. Med., 64, 548-559 […] with the use of an aggregometer available from Schenko or Niko Bioscience Co. In other words, this test is carried out to examine the effect of platelet aggregation (in vitro).
(§1) The tests were conducted in the same way as shown before from the diphenylethylene derivative. Results for inhibition of aggulutination are shown in Table 3 for the in-vitro test and in Table for the ex-vivo test. The acute toxicity test provided the same results as obtained with the diphenylethylene derivative.

[2] = tested on: platelets (aggregation induced by collagen or arachidonic acid); assay: Effect of inhibiting aggultination of platelets (ex vivo), oral administration to guinea pigs; type: in vivo; conditions: Cavia porcellus, Platelet, 2 h
Protocol: 2. Effect of inhibiting aggultination of platelets (ex vivo)
The compound A to E, which were typical examples of the compound of the present invention, were orally administered to guinea pigs. After two hours, the blood of each animal was collected from the abdominal aorta thereof under etherization. Then the effect of each compound on the aggultination of platelets induced by collagen (3 μg/ml) and arachidonic acid (50 μM) was examined. […] In other words, this test is conducted to examine the effect of platelet aggregation (ex vivo).
as §1

[3] = ADP-induced, human PRP, incubated at 37° C. for three minutes, in vitro, read-out: Effect of inhibiting ADP aggultination IC50
[4] = PAF-induced, human PRP, incubated at 37° C. for three minutes, in vitro, read-out: Effect of inhibiting PAF aggultination IC50
[5] = arachidonic acid-induced, human PRP, incubated at 37° C. for three minutes, in vitro, read-out: Effect of inhibiting arachidonic acid aggultination IC50
[6] = collagen-induced, human PRP, incubated at 37° C. for three minutes, in vitro, read-out: Effect of inhibiting collagen aggultination IC50
[7] = guinea pigs, oral, two hours after administration, arachidonic acid (50 μM), ex vivo, read-out: Effect of inhibiting arachidonic acid aggultination ED50
[8] = guinea pigs, oral, two hours after administration, collagen (3 μg/ml), ex vivo, read-out: Effect of inhibiting collagen aggultination ED50

Structure (SMILES) | pIC50 ([1]; Homo sapiens, read-out: Effect of inhibiting ADP aggultination IC50) | pIC50 ([1]; Homo sapiens, read-out: Effect of inhibiting PAF aggultination IC50) | pIC50 ([1]; Homo sapiens, read-out: Effect of inhibiting arachidonic acid aggultination IC50) | pIC50 ([1]; Homo sapiens, read-out: Effect of inhibiting collagen aggultination IC50) | ED50 ([2]; po, read-out: Effect of inhibiting arachidonic acid aggultination ED50) [mg/kg] | ED50 ([2]; po, read-out: Effect of inhibiting collagen aggultination ED50) [mg/kg] | pIC50 [1, 3] | pIC50 [1, 4] | pIC50 [1, 5] | pIC50 [1, 6] | ED50 [2, 7] [mg/kg] | ED50 [2, 8] [mg/kg]
COc1ccc(C(=C(C#N)CCC(=O)O)c2ccc(OC)cc2)cc1 [Cpd. D, 4-Cyano-5,5-bis(4-methoxyphenyl)4-pentenoic acid] | 5.72 | 5.55 | 6.10 | 5.77 | 0.03 | 0.05 |  |  |  |  |  | 
CCOC(=O)CC(=O)CON=C(c1ccc(OC)cc1)c1ccc(OC)cc1 [Cpd. L, 4,4'-dimethoxybenzophenone-O-(3-ethoxycarbonyl-2-oxopropyl)oxime] |  |  |  |  |  |  | 6.10 | 5.92 | 7.00 | 6.30 | 30 | 30
COc1ccc(C(=NOC(C#N)CCCC(=O)O)c2ccc(OC)cc2)cc1 (centres unmarked) [Cpd. R, 4,4'-Dimethoxybenzophenone O-(1-cyano-4-carboxybutyl)oxime] |  |  |  |  |  |  | 4.07 | 4.10 | 4.30 | 4.10 | ≤ 100 | ≤ 100
CON=C(CON=C(c1ccc(OC)cc1)c1ccc(OC)cc1)CC(=O)O [Cpd. N, 4,4'-Dimethoxybenzophenone O-(3-carboxy-2-methoxyiminopropyl)oxime] |  |  |  |  |  |  | 5.30 | 5.39 | 6.15 | 5.55 | 0.3 | 1.3
COc1ccc(C(=CCNS(=O)(=O)c2ccccc2)c2ccc(OC)cc2)cc1 [Cpd. B, N-[3,3-Bis(4-methoxyphenyl)allyl]benzensulfonamide] |  |  |  |  |  |  | 5.70 | 5.60 | 6.05 | 5.85 | 20 | 20
CCOC(=O)CCC(C#N)ON=C(c1ccc(OC)cc1)c1ccc(OC)cc1 (centres unmarked) [Cpd. O, 4,4'Dimethoxybenzophenone O-(1-cyano-3-ethoxycarbonylpropyl)oxime] |  |  |  |  |  |  | 4.70 | 4.84 | 5.15 | 4.85 | 0.3 | 1
COc1ccc(C(=NOC(C#N)CCC(=O)O)c2ccc(OC)cc2)cc1 (centres unmarked) [Cpd. P, 4,4'-Dimethoxybenzophenone O-(1-cyano-3-carboxypropyl)oxime] |  |  |  |  |  |  | 5.57 | 5.82 | 6.40 | 5.96 | 0.3 | 1.1
Clc1ccccc1CN1CCc2sccc2C1 [Ticlopidine, reference compound] |  |  |  |  |  |  |  |  |  |  | 150 | ≤ 200
COC(=O)CCCC(C#N)ON=C(c1ccc(OC)cc1)c1ccc(OC)cc1 (centres unmarked) [Cpd. Q, 4,4'-Dimethoxybenzophenone O-(1-cyano-4-methoxycarbonylbutyl)oxime] |  |  |  |  |  |  | 4.46 | 4.43 | 4.92 | 4.44 | 50 | 88
CCOC(=O)CC(CON=C(c1ccc(OC)cc1)c1ccc(OC)cc1)=NOC [Cpd. M, 4,4'-Dimethoxybenzophenone O-(3-ethoxycarbonyl-2-methoxyiminopropyl)oxime] |  |  |  |  |  |  | 4.88 | 4.70 | 4.90 | 4.85 | 55 | 55
COc1ccc(C(=CC(=O)NCc2ccccc2)c2ccc(OC)cc2)cc1 [Cpd. A, N-Benzyl-3,3-bis(4-methoxyphenyl)acrylamide] |  |  |  |  |  |  | 5.30 | 4.82 | 5.30 | 4.70 | 100 | 100
COC(=O)CCCC(C#N)=C(c1ccc(OC)cc1)c1ccc(OC)cc1 [Cpd. E, Methyl 5-cyano-6,6-bis(4-methoxyphenyl)-5-hexenoate] |  |  |  |  |  |  | 6.70 | 5.89 | 7.22 | 6.82 | 0.3 | 1
CCOC(=O)CCC(C#N)=C(c1ccc(OC)cc1)c1ccc(OC)cc1 [Cpd. C, Ethyl 4-cyano-5,5-bis(4-methoxyphenyl)-4-pentenoate] |  |  |  |  |  |  | 6.70 | 5.74 | 7.15 | 6.70 | 0.03 | 0.05
